Article PMC5059489, “Mechanistic evaluation and transcriptional signature of a glutathione S-transferase omega 1 inhibitor” (Nature Communications, 2016)
Where “and” joins values, the source holds several entries; their conditions need not be identical. Identical values can stand only once.

Legend:
[1] = system: HCT116p53+/+ cell; test: MTT cell proliferation at single concentration; format: cell-based, human
Protocol: Cell proliferation was assessed by a MTT assay. Cancer cells were seeded in 96-well microtitre plates and, after overnight attachment, treated with GSTO1 inhibitors. After 72 h, MTT solution (3 mg ml^−1; 20 μl) was added to each well and cells were incubated for 3 h at 37 °C. After incubation, media from each well was removed and the dark blue formazan crystals formed by live cells were dissolved in DMSO (150 μl per well). The absorbance intensity was measured at 570 nm on a microplate reader (Molecular Devices, Sunnyvale, CA, USA). Cell viability after 24 h treatment was assessed using ApoTox-Glo triplex assay (Promega) according to the manufacturer's protocol. At least three independent dose–response experiments with each concentration tested in triplicate were performed for each cell line.

[2] = target: T1, GSTO1 (Homo sapiens, UniProt P78417); test: GSTO1 substrate assay (reduction of 4-NPG); conditions: for IC50: read-out: GSTO substrate assay IC50, cluster screening tables
T1 sequence (P78417 1-241): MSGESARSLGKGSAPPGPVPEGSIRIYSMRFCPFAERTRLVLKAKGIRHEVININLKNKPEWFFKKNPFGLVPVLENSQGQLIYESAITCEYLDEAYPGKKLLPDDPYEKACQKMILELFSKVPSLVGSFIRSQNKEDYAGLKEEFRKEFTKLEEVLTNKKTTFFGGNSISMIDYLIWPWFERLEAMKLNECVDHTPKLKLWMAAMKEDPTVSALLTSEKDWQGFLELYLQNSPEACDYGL
Protocol: For activity screening, we adapted a GSTO1 substrate assay that relies on the quantification of the reduction of S-(4-nitrophenacyl)glutathione (4-NPG), a GSTO1-specific substrate[17], using recombinant human GSTO1 in a high-throughput screening format.
Enzyme activity was measured by monitoring the reduction of 4-NPG to 4-nitroacetophenone by GSTO1.

[3] = target: T1, GSTO1; test: In-gel fluorescence competitive CMFDA binding assay, recombinant GSTO1; conditions: inhibition of CMFDA binding
Source text: (§1) Primary screening of GSTO inhibitors was based on competitive inhibition of CMFDA binding to endogenous GSTO. Briefly, HCT116^p53+/+ cells (4 × 10^4 per well) were coated in a 12-well plate. […] Cells were then washed with PBS and lysed using Cell Lytic M buffer (Sigma). […] Gels were immediately scanned on a Typhoon variable mode imager (Amersham Bioscience). Quantification of fluorescent band intensity was done using Image Quant 5.2 software.

[4] = target: T2, endogenous GSTO1 (Homo sapiens, UniProt P78417); test: In-gel fluorescence competitive CMFDA binding assay, endogenous GSTO1 in HCT116; conditions: 10 µM; inhibition of CMFDA binding, HCT116
T2 sequence (P78417 1-241): T1 sequence (P78417 1-241)
Source text: as §1

Row | Structure (SMILES) | % Inhibition of HCT116p53+/+ cell proliferation at 10 µM [1] | GSTO substrate assay % Inhibition at 10 µM [2] [%] | IC50 [2] [nM] | GSTO binding assay (% Inhibition at 10 µM) Recombinant [3] [%] | GSTO binding assay (% Inhibition at 10 µM) Endogenous [4] [%]
1 | N#CC(c1ccccc1)N1CCN(C(=O)CCl)CC1 (centres unmarked) [C5-8] | 82.6% and 87.3% | 93.8 | 293 | 62.3 | 75.7
2 | O=C(CCl)Nc1ccc(Oc2ccc(Br)cc2)cc1 [C1-7] | 29.6% | 77.7 | 162 | 75.6 | 56.6
3 | O=C(CCl)Nc1cc(C(F)(F)F)ccc1N1CCCC1 [C1-17] | 94.8% and 91% | 88.5 | – | -4.1 | -9.5
4 | CCOC(=O)c1cc(C(C)C)sc1NC(=O)CCl [C2-8] | 4.5% and 0.8% | 3.8 | – | 39.2 | 51.7
5 | O=C(CCl)N1CCN(Cc2cccc3ccccc23)CC1 [C5-9] | 68.4% and 79.3% | 83.7 | 381 | 62.3 | 52.8
6 | C=CCN(C(=O)CCl)c1nc(-c2ccc(Cl)c(Cl)c2)cs1 [C4-5] | 9.9% and 16.9% | 5.0 | – | -8.2 | 15.9
7 | CN(CC1COc2ccccc2O1)C(=O)CCl (centres unmarked) [C4-8] | 70.7% | 97.2 | 237 | 59.5 | 53.0
8 | COc1ccc(C2=NN(C(=O)CCl)C(c3cccc(OC)c3OC)C2)cc1 (centres unmarked) [C5-21] | 78.2% and 83.6% | 40.0 | – | 65.0 | 28.9
9 | N#CCCN(C(=O)CCl)c1cccc(C(F)(F)F)c1 [C4-2] | 84.1% and 93.6% | 78.6 | 1070 | 53.2 | 52.8
10 | N#Cc1ccccc1S(=O)(=O)N1CCN(C(=O)CCl)CC1 [C5-13] | 81.1% and 55.9% | 98.1 | 156 | 61.1 | 66.2
11 | O=C(CCl)Nc1ccccc1C(=O)NCc1ccco1 [C1-13] | 14.3% and 6.6% | 62.2 | – | 35.2 | 61.1
12 | CN(Cc1cnn(-c2ccccc2)c1)C(=O)CCl [C4-10] | 82.1% | 99.5 | 1950 | 66.4 | 53.1
13 | Cn1ccnc1C(NC(=O)CCl)c1ccccc1 (centres unmarked) [C3-10] | 96.5% and 87.4% | 78.4 | – | 29.4 | 48.4
14 | NC(=O)CCN(Cc1ccccc1)C(=O)CCl [C4-14] | 70.3% and 75% | 89.1 | – | 45.2 | 56.8
15 | CC(C)C(NC(=O)CCl)c1cccs1 (centres unmarked) [C3-28] | 48.5% and 48.7% | 42.0 | – | 15.1 | 44.1
16 | O=C(CCl)NC1CCN(Cc2ccccc2)CC1 [C2-2] | 1.1% | 90.5 | – | 6.5 | 66.7
